What was measured:
human TLR7 [1] = biological target: T1, human TLR7 (Homo sapiens, UniProt Q9NYK1); test: Human TLR7 reporter gene assay (HEK-Blue hTLR7 cell line), Test 22; assay type: cell-based; details: method of Test 1
T1 construct: expresses full-length human TLR7 and secretory alkaline phosphatase (SEAP) reporter gene; host or cells: HEK293 (TLR7/NF-κB/SEAPorter)
T1 sequence (Q9NYK1 27-1049): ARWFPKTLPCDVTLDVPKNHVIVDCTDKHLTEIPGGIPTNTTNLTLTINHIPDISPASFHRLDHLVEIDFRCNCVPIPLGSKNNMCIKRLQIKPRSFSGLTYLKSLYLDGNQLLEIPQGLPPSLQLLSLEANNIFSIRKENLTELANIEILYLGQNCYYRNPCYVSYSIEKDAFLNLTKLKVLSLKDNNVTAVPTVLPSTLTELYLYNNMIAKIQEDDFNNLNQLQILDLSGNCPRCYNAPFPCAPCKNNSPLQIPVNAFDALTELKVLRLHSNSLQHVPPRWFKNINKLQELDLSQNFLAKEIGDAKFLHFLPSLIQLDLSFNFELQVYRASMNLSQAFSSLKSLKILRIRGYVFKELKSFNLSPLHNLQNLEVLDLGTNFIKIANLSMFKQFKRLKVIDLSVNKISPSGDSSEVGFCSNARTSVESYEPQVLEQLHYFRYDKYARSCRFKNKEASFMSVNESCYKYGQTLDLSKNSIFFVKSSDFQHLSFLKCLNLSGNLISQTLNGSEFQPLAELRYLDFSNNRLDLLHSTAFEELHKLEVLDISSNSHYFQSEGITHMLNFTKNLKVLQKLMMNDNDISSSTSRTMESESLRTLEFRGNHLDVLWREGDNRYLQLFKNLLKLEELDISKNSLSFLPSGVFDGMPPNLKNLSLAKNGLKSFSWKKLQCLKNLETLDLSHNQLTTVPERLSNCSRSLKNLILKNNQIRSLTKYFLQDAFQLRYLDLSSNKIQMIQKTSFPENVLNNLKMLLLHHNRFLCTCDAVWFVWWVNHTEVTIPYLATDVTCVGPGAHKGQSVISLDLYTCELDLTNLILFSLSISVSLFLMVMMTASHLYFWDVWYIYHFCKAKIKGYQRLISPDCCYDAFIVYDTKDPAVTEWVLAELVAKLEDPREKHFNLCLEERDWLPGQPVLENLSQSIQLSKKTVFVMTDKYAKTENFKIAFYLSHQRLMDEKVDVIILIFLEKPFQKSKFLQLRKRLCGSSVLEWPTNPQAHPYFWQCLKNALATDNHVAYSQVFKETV
Source text: (§1) TLR7/NF-κB/SEAPorter™ HEK293 cell line (Imgenex Corporation) is a stably co-transfected cell line which expresses full-length human TLR7 and secretory alkaline phosphatase (SEAP) reporter gene under the transcriptional regulation of an NF-κB response element. The TLR7 expression of the cell line has been already tested by flow cytometry. Transfectants with stable expression were selected using the antibiotic blasticidin and Geneticin. TLR signaling leads to the translocation of NF-κB and the activation of the promoter results in expression of the SEAP gene. TLR7-specific activation was assessed by determining the level of SEAP produced following 24-hour incubation of the cells at 37° C. with each compound prepared in Examples and Reference examples in the presence of 0.1% (v/v) dimethylsulfoxide (DMSO). The human TLR7 activity for the present compound was assessed by human TLR7 reporter gene assay, and the results are shown in Tables 3 and 4 as the compound concentration which produced half of the maximal level of SEAP induction (EC50)
According to the method of Test 1, human TLR7 reporter gene assay was done with the following samples, and the result was shown in the table below. The cell used herein was HEK-Blue™ hTLR7 cell line (Invivogen). HEK-Blue™ hTLR7 cell line is a stably co-transfected cell line which expresses full-length human TLR7 and secretory SEAP reporter gene under the transcriptional regulation of an NF-κB response element. The TLR7 expression of the cell line has been already tested by RT-PCR. Transfectants with stable expression were selected using the antibiotic blasticidin and Zeocin.

human TLR7 [2] = biological target: T1, human TLR7; test: Human TLR7 reporter gene assay (TLR7/NF-κB/SEAPorter HEK293 cell line), Tests 1 and 21; assay type: cell-based; details: Test 21; according to the method of Test 1; read-out: human EC50
Source text: Human TLR7 Reporter Gene Assay
as §1
According to the method of Test 1, human TLR7 reporter gene assay was done with the following samples, and the result was shown in the table below.

[3] = tested on: HLA-A*02:01 transgenic mouse; test: Test 10: in vivo adjuvant activity, cocktail vaccine b, IFNγ ELISPOT; details: added to cocktail vaccine b; 0.4 nmol per body, twice; FIG. 8 and 9
Description: Evaluation of In Vivo Adjuvant Activity in HLA-A*02:01 Transgenic Mouse
The in vivo adjuvant activity of the compound of Example 11 was evaluated in the following procedure. To cocktail vaccine b like Test 9 was added the compound prepared in Example 11 to prepare a vaccine. The vaccine was administered to a HLA-A*02:01 transgenic mouse, and the adjuvant activity of the vaccine was evaluated by the method of testing antigen-specific CTL induction.
Specifically, Compound of formula 4 and Peptide SEQ ID No. 3 were dissolved in DMSO, and then diluted with water for injection to concentrations of Compound of formula 4 of 3 mg/mL and Peptide SEQ ID No. 3 of 2.25 mg/mL. The diluted peptide solution was mixed and emulsified with an equal volume of Montanide ISA 51 VG to prepare cocktail vaccine b. Cocktail vaccine b was injected to mice intradermally at the tail base area in an amount for administering 300 μg of Compound of formula 4 per body and 225 μg of Peptide SEQ ID No. 3 per body. […] Then, after removal of the supernatant from the wells, stained spots on the ELISPOT plate were counted.

EC50 (human TLR7 [1]) [µM]	EC50 (human TLR7 [2]) [µM]	Structure (SMILES)	CTL counts responsive to Peptide SEQ ID No. 1 or SEQ ID No. 4 compared with adding no compound [3]
0.119		CCC[C@@H](CO)Nc1nc(N)nc(C)c1Cc1ccc(C(=O)OCCOCCOCCOCCOC)cc1OC [Example 6, 2,5,8,11-tetraoxatridecan-13-yl 4-[(2-amino-4-{[(2S)-1-hydroxypentan-2-yl]amino}-6-methylpyrimidin-5-yl)methyl]-3-methoxybenzoate]	
0.071		CCCCCNc1nc(N)nc(C)c1Cc1ccc(COCCOCCOCCOCCOC)cc1OC [Example 7, 5-{[2-methoxy-4-(2,5,8,11,14-pentaoxapentadecan-1-yl)phenyl]methyl}-6-methyl-N^4-pentylpyrimidine-2,4-diamine]	
	0.774	CCCCCNc1nc(N)nc(C)c1Cc1ccc(CN(CCOCCOCCOCCO)CCOCCOCCOCCO)cc1OC [Example 11, 12-[(4-{[2-amino-4-methyl-6-(pentylamino)pyrimidin-5-yl]methyl}-3-methoxyphenyl)methyl]-3,6,9,15,18,21-hexaoxa-12-azatricosan-1,23-diol]	more

Source: patent US12427192B2, “Water soluble adjuvant and composition containing same” (Sumitomo Pharma Co., Ltd., priority 2019, dated 2025)
